These results are taken from patent publication US9796711B2, “Substituted pyrazolo[3,4-b]pyridin-6-carboxylic acids and method of use” (AbbVie S.àr.l., priority 2015, dated 2017).

Assay [1] concerns the target T1, ΔF508-CFTR (Homo sapiens, UniProt P13569, DEL508-508).
T1 construct: host or cells: CFBE41o-, doxycycline-inducible
The experiment in a line: CFTR cell surface levels using HRP-tagged ΔF508-CFTR expressing CFBE cells, in the presence of a co-corrector. The class given is cell-based. The settings on record: HRP-tagged ΔF508-CFTR expressing CFBE cells, in the presence of 3 μM co-corrector; for EC50: read-out: EC50. Put shortly: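 Cells were seeded with 0.5 μg/mL doxycycline and held 68 h at 37 °C. Test compounds plus 3 μM co-corrector (final 0.1% DMSO) were then added for 20 h at 33 °C. Washed cells received HRP substrate, and luminescence was normalized between DMSO and 3 μM co-corrector controls.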

In assay [2] the target is T1, ΔF508-CFTR. The experiment in a line: CFTR cell surface levels using HRP-tagged ΔF508-CFTR expressing CFBE cells, intrinsic corrector capacity. The class given is cell-based. The conditions noted are these: for EC50: read-out: EC50. Put shortly: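 Here the cells express ΔF508-CFTR with horseradish peroxidase inserted in extracellular loop 4, so only rescued channel at the surface gives luminescent signal. Compounds act on their own, 20 h at the reduced temperature of 33 °C; values are percent activity relative to DMSO and a 3 μM corrector.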

The mark [3] stands for this setting: HRP-tagged ΔF508-CFTR CFBE41o- cells, compounds alone (intrinsic corrector capacity), 20 hours at 33° C., positive control 3 μM corrector.
Where [4] appears, read: HRP-tagged ΔF508-CFTR CFBE41o- cells, compounds alone (intrinsic corrector capacity), 20 hours at 33° C.
The mark [5] stands for this setting: HRP-tagged ΔF508-CFTR expressing CFBE cells, intrinsic corrector capacity (no co-corrector), 33° C., 20 hours.

T1 sequence (P13569 with tags, fused parts or gaps DEL508-508): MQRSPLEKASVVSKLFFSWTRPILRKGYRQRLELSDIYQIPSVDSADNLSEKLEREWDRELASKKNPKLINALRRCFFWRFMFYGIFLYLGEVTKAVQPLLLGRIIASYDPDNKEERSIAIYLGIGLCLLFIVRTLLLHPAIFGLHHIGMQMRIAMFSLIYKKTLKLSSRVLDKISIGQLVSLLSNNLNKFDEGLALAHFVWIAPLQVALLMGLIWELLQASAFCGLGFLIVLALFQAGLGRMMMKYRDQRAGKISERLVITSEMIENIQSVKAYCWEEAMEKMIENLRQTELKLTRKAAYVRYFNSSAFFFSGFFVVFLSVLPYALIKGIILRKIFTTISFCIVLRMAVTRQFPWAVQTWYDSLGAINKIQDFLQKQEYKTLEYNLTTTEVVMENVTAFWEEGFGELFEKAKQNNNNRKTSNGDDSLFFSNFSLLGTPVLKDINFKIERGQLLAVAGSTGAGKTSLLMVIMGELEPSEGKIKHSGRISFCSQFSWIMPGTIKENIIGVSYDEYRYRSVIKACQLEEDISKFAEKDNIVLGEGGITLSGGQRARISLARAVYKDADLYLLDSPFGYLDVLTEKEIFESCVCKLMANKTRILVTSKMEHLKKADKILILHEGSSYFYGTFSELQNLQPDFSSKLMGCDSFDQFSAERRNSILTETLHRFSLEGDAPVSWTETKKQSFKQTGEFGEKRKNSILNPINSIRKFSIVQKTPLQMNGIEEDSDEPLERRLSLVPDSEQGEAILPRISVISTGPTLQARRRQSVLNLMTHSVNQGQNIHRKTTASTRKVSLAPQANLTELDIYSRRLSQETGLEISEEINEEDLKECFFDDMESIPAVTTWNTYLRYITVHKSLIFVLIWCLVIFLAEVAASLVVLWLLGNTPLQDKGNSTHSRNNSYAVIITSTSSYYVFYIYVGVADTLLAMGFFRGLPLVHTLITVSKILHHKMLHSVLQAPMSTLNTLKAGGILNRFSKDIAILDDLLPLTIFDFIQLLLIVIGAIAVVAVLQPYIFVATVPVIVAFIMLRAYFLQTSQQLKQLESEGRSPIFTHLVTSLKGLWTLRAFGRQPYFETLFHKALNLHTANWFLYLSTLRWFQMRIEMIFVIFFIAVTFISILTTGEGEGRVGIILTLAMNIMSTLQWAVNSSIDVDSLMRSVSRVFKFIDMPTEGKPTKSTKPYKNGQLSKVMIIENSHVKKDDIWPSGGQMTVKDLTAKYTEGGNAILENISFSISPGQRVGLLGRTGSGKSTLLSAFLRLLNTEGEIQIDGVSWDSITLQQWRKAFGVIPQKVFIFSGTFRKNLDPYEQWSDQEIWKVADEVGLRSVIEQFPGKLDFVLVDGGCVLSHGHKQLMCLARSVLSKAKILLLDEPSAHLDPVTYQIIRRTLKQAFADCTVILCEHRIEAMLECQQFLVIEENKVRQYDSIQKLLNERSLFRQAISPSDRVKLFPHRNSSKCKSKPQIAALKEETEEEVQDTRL

As a reminder, the EC50 is the midpoint of the concentration-response curve. Take `Cc1nn(-c2ccccc2)c2nc(C(=O)O)cc(-c3ccc(N4CC(N(C)C)C4)cc3)c12` [compound 72]: the “% Activation” value came to 308.1% in assay [1] and 91.87% in assay [2] (setting [3]). Also, the EC50 in assay [1] was found to be 3340 nM; in assay [2] (setting [4]), 2250 nM.
Turning to `COC1CCCN(C2CCN(c3cc(C(=O)O)nc4c3c(C3CCC3)nn4-c3ccc(F)cc3)CC2)C1` (centres unmarked) [compound 875, 3-cyclobutyl-1-(4-fluorophenyl)-4-(3-methoxy[1,4′-bipiperidin]-1′-yl)-1H-pyrazolo[3,4-b]pyridine-6-carboxylic acid], in assay [1], the “% Activation” value stood at 450.3% and the EC50 came out at 819 nM. Moreover, in assay [2] (setting [5]), the “% Activation” value is 270.7% and the 50% effective concentration (EC50) worked out at 1600 nM.
For the compound `Cc1nn(-c2ccccc2)c2nc(C(=O)O)cc(N3CCC4(CCCO4)C3)c12` (centres unmarked) [compound 311, 3-methyl-4-(1-oxa-7-azaspiro[4.4]nonan-7-yl)-1-phenyl-1H-pyrazolo[3,4-b]pyridine-6-carboxylic acid], the “% Activation” value in assay [1] came to 195.5%; in assay [2] (setting [3]) it was 53.7%. Moreover, the EC50 in assay [1] was 2140 nM; in assay [2] (setting [4]), 2510 nM.
Take `O=C(O)c1cc(N2CC3CC3C2)c2c(C3CCC3)nn(-c3ccccc3)c2n1` (centres unmarked) [compound 406, 4-(3-azabicyclo[3.1.0]hexan-3-yl)-3-cyclobutyl-1-phenyl-1H-pyrazolo[3,4-b]pyridine-6-carboxylic acid]: in assay [1], the “% Activation” value came out at 359.55% and the concentration giving a half-maximal response (EC50) is 641 nM. For the same compound, in assay [2] (setting [5]), the “% Activation” value is reported as 182.5% and the EC50 stood at 823 nM.
Regarding `Cc1nn(-c2ccccc2)c2nc(C(=O)O)cc(-c3ccc(N4CC[C@H](C#N)C4)cc3)c12` [compound 155, 4-{4-[(3S)-3-cyanopyrrolidin-1-yl]phenyl}-3-methyl-1-phenyl-1H-pyrazolo[3,4-b]pyridine-6-carboxylic acid], the “% Activation” value turned out to be 399.6% in assay [1] and 203.65% in assay [2] (setting [3]). For the same compound, the concentration giving a half-maximal response (EC50) in assay [1] stood at 909 nM; in assay [2] (setting [4]), 1350 nM.
With `Cc1nn(-c2cccc(C(F)(F)F)c2)c2nc(C(=O)O)cc(-c3ccc(N4CCOCC4)nc3)c12` [compound 102, 3-methyl-4-[6-(morpholin-4-yl)pyridin-3-yl]-1-[3-(trifluoromethyl)phenyl]-1H-pyrazolo[3,4-b]pyridine-6-carboxylic acid], the “% Activation” value in assay [1] was found to be 384%; in assay [2] (setting [3]) it was 153%. Further, the EC50 in assay [1] was found to be 949 nM; in assay [2] (setting [4]), 1040 nM.
Regarding `Cc1nn(-c2ccccc2)c2nc(C(=O)O)cc(O[C@H]3C[C@@H](N4CCCCC4)C3)c12` [compound 346, 3-methyl-1-phenyl-4-{[cis-3-(piperidin-1-yl)cyclobutyl]oxy}-1H-pyrazolo[3,4-b]pyridine-6-carboxylic acid], the “% Activation” value in assay [1] amounted to 151.2%; in assay [2] (setting [3]) it was 20.555%. Further, the 50% effective concentration (EC50) stood at 4170 nM in assay [1] and 7500 nM in assay [2] (setting [4]).
For the compound `CC(C)c1nn(C2CCCCC2)c2nc(C(=O)O)cc(-c3ccc(N(C)C)nc3)c12` [compound 93, 1-cyclohexyl-4-[6-(dimethylamino)pyridin-3-yl]-3-(propan-2-yl)-1H-pyrazolo[3,4-b]pyridine-6-carboxylic acid], the “% Activation” value in assay [1] was 379.57%; in assay [2] (setting [3]), 175.6%. Besides, the figures for the EC50 in assay [1] and in assay [2] (setting [4]) were 491 nM and 680 nM, respectively.
For `CC(C)c1nn(C2CCCCC2)c2nc(C(=O)O)cc(-c3ccc(N(C)C4CCOC4)nc3)c12` (centres unmarked) [compound 276, 1-cyclohexyl-4-{6-[methyl(oxolan-3-yl)amino]pyridin-3-yl}-3-(propan-2-yl)-1H-pyrazolo[3,4-b]pyridine-6-carboxylic acid] the same measures were 407.8%, 206.93%, 372 nM and 504 nM.
Regarding `COC(C)(C1CCN(c2cc(C(=O)O)nc3c2c(C2CCC2)nn3-c2ccccc2)CC1)C(F)(F)F` (centres unmarked) [compound 499, 3-cyclobutyl-1-phenyl-4-[4-(1,1,1-trifluoro-2-methoxypropan-2-yl)piperidin-1-yl]-1H-pyrazolo[3,4-b]pyridine-6-carboxylic acid], in assay [1], the “% Activation” value is 435.6% and the EC50 turned out to be 200 nM. Further, in assay [2] (setting [5]), the “% Activation” value is given as 242.93% and the EC50 came out at 393 nM.
As to `Cc1cccc(-n2nc(C(C)C)c3c(N4CC5(CCC5)C4)cc(C(=O)O)nc32)c1` [compound 273, 4-(2-azaspiro[3.3]heptan-2-yl)-1-(3-methylphenyl)-3-(propan-2-yl)-1H-pyrazolo[3,4-b]pyridine-6-carboxylic acid], the “% Activation” value is listed as 311.05% in assay [1] and 100.16% in assay [2] (setting [3]). The EC50 came out at 985 nM in assay [1] and 1020 nM in assay [2] (setting [4]).
For the compound `CC(C)c1nn(C2CCCCC2)c2nc(C(=O)O)cc(-c3ccc(N4CCC(C#N)CC4)cc3)c12` [compound 185, 4-[4-(4-cyanopiperidin-1-yl)phenyl]-1-cyclohexyl-3-(propan-2-yl)-1H-pyrazolo[3,4-b]pyridine-6-carboxylic acid], the “% Activation” value in assay [1] worked out at 478.6%; in assay [2] (setting [3]), 237.8%. The 50% effective concentration (EC50) was 520 nM in assay [1] and 1110 nM in assay [2] (setting [4]).
For `Cc1nn(-c2ccccc2)c2nc(C(=O)O)cc(-c3ccc(N(C)C4COC4)cc3)c12` [compound 140, 3-methyl-4-{4-[methyl(oxetan-3-yl)amino]phenyl}-1-phenyl-1H-pyrazolo[3,4-b]pyridine-6-carboxylic acid] the same measures were 362.05%, 178%, 941 nM and 1500 nM.
On to `Cc1nn(-c2ccccc2)c2nc(C(=O)O)cc(-c3ccc(N4CCN(C(C)(C)C)CC4)cc3)c12` [compound 60, 4-[4-(4-tert-butylpiperazin-1-yl)phenyl]-3-methyl-1-phenyl-1H-pyrazolo[3,4-b]pyridine-6-carboxylic acid], for which the “% Activation” value in assay [1] is listed as 143.1%; in assay [2] (setting [3]), 14.9%. Besides, the EC50 in assay [1] and in assay [2] (setting [4]) was greater than 10000 nM each time.
For `Cc1nn(-c2ccccc2)c2nc(C(=O)O)cc(N3CCC(F)(F)C3)c12` [compound 299, 4-(3,3-difluoropyrrolidin-1-yl)-3-methyl-1-phenyl-1H-pyrazolo[3,4-b]pyridine-6-carboxylic acid], the figures for the “% Activation” value in assay [1] and in assay [2] (setting [3]) were 194.8% and 51.845%, respectively. Also, the half-maximal effective concentration (EC50) in assay [1] and in assay [2] (setting [4]) was 2510 nM in each case.
`CC(C)c1nn(-c2ccc(F)cc2)c2nc(C(=O)O)cc(N3CCN(C(=O)N(C)C)CC3)c12` [compound 774, 4-[4-(dimethylcarbamoyl)piperazin-1-yl]-1-(4-fluorophenyl)-3-(propan-2-yl)-1H-pyrazolo[3,4-b]pyridine-6-carboxylic acid]: the “% Activation” value was determined as 375.6% in assay [1] and 163% in assay [2] (setting [5]). In addition, the EC50 in assay [1] and in assay [2] (setting [5]) was 1670 nM in each case.
Take `CC(C)c1nn(-c2ccc(F)cc2F)c2nc(C(=O)O)cc(-c3cnc(N4CCC(C#N)CC4)nc3)c12` [compound 325, 4-[2-(4-cyanopiperidin-1-yl)pyrimidin-5-yl]-1-(2,4-difluorophenyl)-3-(propan-2-yl)-1H-pyrazolo[3,4-b]pyridine-6-carboxylic acid]: the results for the “% Activation” value in assay [1] and in assay [2] (setting [3]) were 389.75% and 177.1%, respectively. For the same compound, the concentration giving a half-maximal response (EC50) in assay [1] came out at 779 nM; in assay [2] (setting [4]) it was 1200 nM.
For `CC(C)c1nn(-c2cccc(N3CCCC3)c2)c2nc(C(=O)O)cc(-c3ccc(N4CCOCC4)cc3)c12` [compound 157, 4-[4-(morpholin-4-yl)phenyl]-3-(propan-2-yl)-1-[3-(pyrrolidin-1-yl)phenyl]-1H-pyrazolo[3,4-b]pyridine-6-carboxylic acid] the same measures were 621%, 388.2%, 485 nM and 459 nM.
In the case of `CN(C)c1ccc(-c2cc(C(=O)O)nc3c2c(C2CC2)nn3C2CCCCC2)cn1` [compound 193, 1-cyclohexyl-3-cyclopropyl-4-[6-(dimethylamino)pyridin-3-yl]-1H-pyrazolo[3,4-b]pyridine-6-carboxylic acid], the “% Activation” value in assay [1] is given as 402.32%; in assay [2] (setting [3]), 194.98%. In addition, the EC50 in assay [1] worked out at 425 nM; in assay [2] (setting [4]), 633 nM.
For `CC(C)c1nn([C@@H]2CCC[C@@H](OCc3ccccc3)C2)c2nc(C(=O)O)cc(-c3ccc(N4CCOCC4)cc3)c12` [compound 163, 1-[(1R,3R)-3-(benzyloxy)cyclohexyl]-4-[4-(morpholin-4-yl)phenyl]-3-(propan-2-yl)-1H-pyrazolo[3,4-b]pyridine-6-carboxylic acid] the same measures were 554.5%, 232.43%, 423 nM and 525 nM.
